Assay results reported in PMC10655324, “Combinative effects of akarkara root-derived metabolites on anti-inflammatory and anti-alzheimer key enzymes: integrating bioassay-guided fractionation, GC-MS analysis, and in silico studies” (BMC Complementary Medicine and Therapies, 2023).
Read-outs that look alike come from different tables or passages of the source.

Experiments:
[1] = DPPH radical scavenging assay; conditions: for IC50: isolated compounds and Trolox
Experimental: The extract and fractions were prepared in dimethyl sulfoxide (DMSO) at a concentration of 1mg/mL, while the isolated compounds were tested in 500 µM.
The 2,2-diphenyl-1-picrylhydrazyl (DPPH) assay was performed as described previously. One hundred μL of DPPH reagent (freshly prepared as 0.1% in methanol) was mixed with equal volume of each sample. Then, the solutions were left in the dark at room temperature for […]. Trolox (6-hydroxy-2,5,7,8-tetramethylchroman-2-carboxylic acid) was used as a positive control. The absorbances were measured at 517 nm. Data are represented as means ± SD according to the following equation:
Percentage inhibition = [(Average absorbance of blank - average absorbance of the test)/(Average absorbance of blank)] x 100
The IC50 of each tested sample was determined.

iNOS = iNOS inhibitory activity in LPS-induced RAW264.7 macrophages (nitrite, Griess reagent); assay type: cell-based; conditions: Mus musculus
Experimental: The RAW264.7 macrophage cells were grown on DMEM media, supplemented with 10% FBS and 1% P/S (100 U/ml and […], respectively). The RAW264.7 macrophage cells were kept in DMEM at 37 °C and 5% CO2. For the anti-inflammatory assays, cells were used at 60% confluency after a 24-hour acclimatization period.
Stock solutions of the extract, fractions (1 mg/mL) and the isolated compounds (1000 μM) were made by dissolving in 0.1% DMSO in PBS (pH 7.2). For experiments, they were further diluted with DMEM to obtain the desired concentration. In a 96-well plate, the RAW264.7 macrophages were seeded (4 × 10^3 cells per well) overnight, then washed with DMEM. The macrophages were pre-treated with various concentrations of the extract, fractions (125- 0.98 µg/mL), isolated compounds, and standard drugs (125 - 0.06 µM) for 30 min, and further incubated with LPS (1 μg/mL) for 24 h. For the negative control, cells were treated with 0.1% DMSO (negative control LPS-). After incubation, the monolayer of […] cells were washed with ice-cold PBS (pH 7.2), trypsinized, and treated with lysis buffer (1% Triton X-100, 50 mMTris–HCl, pH 7.4, 0.2% sodium dodecyl sulfate, 0.2% sodium deoxycholate, 1 mM phenylmethylsulfonyl fluoride, 1 mM sodium ethylenediaminetetraacetate, 5 μg/mL of leupeptin, 5 μg/mL of aprotinin) then centrifuged (5000 rpm for 10 min) to collect the supernatant, The cell lysates were stored at − 80 °C utilized for anti-inflammatory assays.
The inhibitory activity of Inducible nitric oxide synthase (iNOS) was determined in terms of nitric oxide (NO) concentration by measuring the quantity of nitrite in the cell culture supernatant using Griess reagent. Equal volumes of each cell lysate (100 µL) and Griess reagent (1% sulfanilamide, 0.1% naphthylethylenediamine dihydrochloride, and 5% phosphoric acid) were mixed and incubated at room temperature for 10 min. Using a microplate reader, absorbances at 540 nm were measured. Parthenolide served as a positive control. The % inhibition was calculated using the following formula:
iNOS % Inhibition= [(OD control−OD sample)/ OD control x 100].

AChE = AChE (Homo sapiens, UniProt P22303); experiment: biochemical
Chain of AChE (P22303 32-614): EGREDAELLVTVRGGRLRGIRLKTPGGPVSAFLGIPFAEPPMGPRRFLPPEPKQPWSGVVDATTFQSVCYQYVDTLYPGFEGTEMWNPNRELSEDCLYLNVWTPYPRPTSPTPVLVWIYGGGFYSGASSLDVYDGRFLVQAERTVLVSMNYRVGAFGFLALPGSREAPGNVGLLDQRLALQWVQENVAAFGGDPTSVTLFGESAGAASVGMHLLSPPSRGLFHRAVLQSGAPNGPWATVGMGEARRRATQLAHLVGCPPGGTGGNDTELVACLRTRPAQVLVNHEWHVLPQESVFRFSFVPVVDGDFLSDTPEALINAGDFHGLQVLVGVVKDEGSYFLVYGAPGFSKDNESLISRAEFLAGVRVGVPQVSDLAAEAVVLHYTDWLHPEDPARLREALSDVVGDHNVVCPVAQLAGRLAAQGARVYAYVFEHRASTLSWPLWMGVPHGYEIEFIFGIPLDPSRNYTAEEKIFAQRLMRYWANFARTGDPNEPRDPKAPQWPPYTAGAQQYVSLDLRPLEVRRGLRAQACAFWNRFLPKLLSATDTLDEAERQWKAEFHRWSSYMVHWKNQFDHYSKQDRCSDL
Experimental: (§1) The cholinesterase inhibitory activity was determined colorimetrically as previously published method with slight modifications. […] In a 96-well plate, 170 μl Tris-HCl buffer (200 mM, pH 7.5) was mixed with 20 μL of each tested sample solution and 20 μL of 0.1 U/ml enzyme solution (Ache or BChE) containing 0.1% bovine serum albumin in the same buffer. Dithio-bis-(2-nitrobenzoic acid) DTNB, an indicator, was added after 10 min of incubation at 25 °C (0.69 mM in tris buffer). […] In the control assays without the inhibitors, the tested samples were replaced by DMSO (20 μl) and their absorbance values were recorded (Reading B). Regarding the blank assays, the buffer (20 μL) was added instead of the enzyme.
(§2) The % inhibition was calculated using the following formula:
(§3) % of inhibition = [1− (corrected A/corrected B)] * 100

BChE = BChE (Homo sapiens, UniProt P06276); experiment: biochemical
Chain of BChE (P06276 29-602, species assumed): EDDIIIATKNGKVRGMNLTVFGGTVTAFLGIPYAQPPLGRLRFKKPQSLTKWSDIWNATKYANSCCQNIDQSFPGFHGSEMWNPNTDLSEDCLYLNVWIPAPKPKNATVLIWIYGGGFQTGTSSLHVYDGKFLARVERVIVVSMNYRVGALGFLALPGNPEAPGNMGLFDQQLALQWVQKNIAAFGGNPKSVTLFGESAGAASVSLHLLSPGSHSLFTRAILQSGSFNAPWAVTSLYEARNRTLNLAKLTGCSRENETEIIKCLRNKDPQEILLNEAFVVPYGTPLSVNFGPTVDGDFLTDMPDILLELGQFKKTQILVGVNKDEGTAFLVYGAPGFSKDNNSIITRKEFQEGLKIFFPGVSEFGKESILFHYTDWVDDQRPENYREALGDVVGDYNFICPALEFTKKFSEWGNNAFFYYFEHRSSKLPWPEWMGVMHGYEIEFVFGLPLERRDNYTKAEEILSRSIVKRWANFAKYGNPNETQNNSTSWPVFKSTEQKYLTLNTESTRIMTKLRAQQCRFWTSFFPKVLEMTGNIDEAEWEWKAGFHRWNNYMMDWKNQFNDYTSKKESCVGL
Experimental: as §1, §2, §3

[2] = LPS-induced RAW264.7 macrophages, isolated compounds and Parthenolide, read-out: iNOS IC50

CCCCC/C=C/C=C/C(=O)NCC(C)C [A4, deca-2E,4E-dienoic acid isobutylamide]
IC50 [1]: 22.6 ± 0.41 µM | IC50 (iNOS; RAW264.7, read-out: iNOS IC50): 11.4 ± 0.36 µM

CCCCC/C=C/C=C/C(=O)NCCc1ccccc1 [A3, 2E, 4E-deca-2,4-dienoic acid 2-phenylethyl amide]
IC50 [1]: 17.73 ± 0.16 µM | IC50 (AChE): 7.7 ± 0.26 µM | IC50 (BChE): 8.65 ± 0.25 µM | IC50 (iNOS; [2]): 9.15 ± 0.12 µM

CCCCCCCC/C=C\CCCCCCCC(N)=O [A1, 9-cis-octadecenamide]
IC50 [1]: 21.67 ± 0.21 µM | IC50 (AChE): 8.37 ± 0.1 µM | IC50 (BChE): 9.29 ± 0.29 µM | IC50 (iNOS; RAW264.7, read-out: iNOS IC50): 10.3 ± 0.12 µM

C=C1C(=O)O[C@H]2[C@H]1CC/C(C)=C/CC[C@@]1(C)O[C@@H]21 [Parthenolide, reference compound]
IC50 (iNOS; [2]): 4.1 ± 0.08 µM

CC[C@H](/C=C/[C@@H](C)[C@H]1CC[C@H]2[C@@H]3CC=C4C[C@@H](O)CC[C@]4(C)[C@H]3CC[C@]12C)C(C)C [A2, stigmasterol]
IC50 [1]: 16.4 ± 0.23 µM | IC50 (iNOS; RAW264.7, read-out: iNOS IC50): 6.72 ± 0.08 µM

Cc1c(C)c2c(c(C)c1O)CCC(C)(C(=O)O)O2 (stereo not drawn) [Trolox, 6-hydroxy-2,5,7,8-tetramethylchroman-2-carboxylic acid, reference compound]
DPPH IC50 ([1]; extract, fractions and Trolox standard): 1.41 ± 0.08 µg/mL | IC50 [1]: 5.63 µM
